Data: patent US20130011427A1 (priority 2009, published 2013)

Columns and labels:
[1] = tested on: HLA-B7 (HLA-B*0702) Tg mice, CD4-depleted splenocytes; assay type: cell-based, mouse
[2] = tested on: HLA-A24/huCD8α (HLA-A*2402) Tg mice, CD4-depleted splenocytes; assay type: cell-based, mouse
[3] = tested on: HLA-DR3 (DRB1*0301) Tg mice, CD8-depleted splenocytes; assay type: cell-based, mouse
[4] = tested on: HLA-DR4/huCD4 (DRB1*0401) Tg mice, CD8-depleted splenocytes; assay type: cell-based, mouse
[5] = tested on: HLA-A2.1 (HLA-A*0201) Tg mice, CD4-depleted splenocytes; assay type: cell-based, mouse
[6] = tested on: HLA-DR2 (DRB1*1501) Tg mice, CD8-depleted splenocytes; assay type: cell-based, mouse
[7] = biological target: HLA-B7 (chimeric HLA-B*0702 / H-2K^d heavy chain) (human; murine) (UniProt P01902); experiment: cell-based or functional assay
[8] = biological target: HLA-DR4 (HLA-DRA*0101 / HLA-DRB1*0401) (human); experiment: cell-based or functional assay
[9] = biological target: HLA-A2.1 (HHD monochain) (human; murine); experiment: cell-based or functional assay
[10] = biological target: HLA-DR3 (HLA-DRA*0101 / HLA-DRB1*0301) (human); experiment: cell-based or functional assay
[11] = biological target: HLA-DR2 (chimeric HLA-DRA1*0101/DRB1*1501 with I-E domains) (human; murine) (UniProt Q8BHN5); experiment: cell-based or functional assay
Chain of UniProt Q8BHN5 (Q8BHN5 whole entry, stated change not applied): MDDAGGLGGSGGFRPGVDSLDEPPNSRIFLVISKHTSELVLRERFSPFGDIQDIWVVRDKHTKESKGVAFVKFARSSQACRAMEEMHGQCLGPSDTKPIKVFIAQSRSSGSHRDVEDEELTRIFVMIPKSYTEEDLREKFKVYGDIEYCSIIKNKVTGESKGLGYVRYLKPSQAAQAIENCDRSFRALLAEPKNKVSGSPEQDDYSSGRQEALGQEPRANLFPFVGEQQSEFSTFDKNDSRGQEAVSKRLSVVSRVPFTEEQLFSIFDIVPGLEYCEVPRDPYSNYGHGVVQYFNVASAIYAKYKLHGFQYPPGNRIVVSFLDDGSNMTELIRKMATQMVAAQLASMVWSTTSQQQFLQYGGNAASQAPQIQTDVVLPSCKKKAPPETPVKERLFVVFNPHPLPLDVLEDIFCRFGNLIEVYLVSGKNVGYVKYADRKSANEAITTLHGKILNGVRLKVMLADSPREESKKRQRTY

Chain of UniProt P01902 (P01902 whole entry, change not shown): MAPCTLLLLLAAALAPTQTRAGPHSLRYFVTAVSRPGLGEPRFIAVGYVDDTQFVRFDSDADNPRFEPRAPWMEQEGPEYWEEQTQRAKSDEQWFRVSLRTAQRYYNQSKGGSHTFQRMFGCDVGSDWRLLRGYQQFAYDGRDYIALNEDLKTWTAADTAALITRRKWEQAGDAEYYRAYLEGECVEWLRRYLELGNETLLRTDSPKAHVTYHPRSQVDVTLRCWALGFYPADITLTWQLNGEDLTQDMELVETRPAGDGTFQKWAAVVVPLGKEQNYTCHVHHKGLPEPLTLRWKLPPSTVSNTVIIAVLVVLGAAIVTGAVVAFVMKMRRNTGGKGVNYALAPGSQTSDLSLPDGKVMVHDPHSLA

For CDIGESSSSAEVEEHRTI [NS5 145-162], the “T cell activation of HLA transgenic mice (SFC/10^6) IFN-γ ELISpot, B7” value (“T cell activation of HLA transgenic mice … B7” below) [1] was 50 ± 22 SFC/10^6.
In the case of DTACLAKSYAQMWLLLYF [NS5 755-772], the “T cell activation of HLA transgenic mice (SFC/10^6) IFN-γ ELISpot, A24” value (“T cell activation of HLA transgenic mice … A24” below) [2] is reported as 132 ± 62 SFC/10^6.
In the case of DYINTSLTSINVQASALF [NS4b 63-80], the “T cell activation of HLA transgenic mice (SFC/10^6) IFN-γ ELISpot, DR3” value (“T cell activation of HLA transgenic mice … DR3” below) [3] is reported as 386 ± 60 SFC/10^6 and the “T cell activation of HLA transgenic mice (SFC/10^6) IFN-γ ELISpot, DR4” value (from here on “T cell activation of HLA transgenic mice … DR4”) [4] is reported as 92 ± 13 SFC/10^6.
With FACSTKAIGRTILKENIK [E 119-136] the “T cell activation of HLA transgenic mice … A24” value [2] was 179 ± 136 SFC/10^6.
In the case of GGVLWDTPSPKEYKK [NS3 1-15], the “T cell activation of HLA transgenic mice … B7” value [1] is reported as 45 ± 12 SFC/10^6.
For GIDTNAYYVMTVGTKTFL [E 195-212], the “T cell activation of HLA transgenic mice … A24” value [2] was 137 ± 70 SFC/10^6 and the “T cell activation of HLA transgenic mice … DR4” value [4] was 53 ± 16 SFC/10^6.
For GKLITDWCCRSCTLPPLR [NS1 305-322], the “T cell activation of HLA transgenic mice … DR3” value [3] was 557 ± 25 SFC/10^6 and the “T cell activation of HLA transgenic mice … DR4” value [4] was 109 ± 22 SFC/10^6.
GKSRAVNMLKRGMPRVL [C 9-25] was tested, and the “T cell activation of HLA transgenic mice … B7” value [1] was 43 ± 17 SFC/10^6.
IALIALLSVMTMGVFFLL [NS4a 54-71] was tested, and the “T cell activation of HLA transgenic mice … A24” value [2] was 70 ± 16 SFC/10^6.
ILESDLIIPVTLAGPR [NS1 236-251] was tested, and the “T cell activation of HLA transgenic mice … A24” value [2] was 43 ± 18 SFC/10^6 and the “T cell activation of HLA transgenic mice (SFC/10^6) IFN-γ ELISpot, A2” value [5] was 78 ± 42 SFC/10^6.
In the case of ILPSVVGFWITLQYTKR [NS2b 115-131], the “T cell activation of HLA transgenic mice … A24” value [2] is reported as 56 ± 2 SFC/10^6 and the “T cell activation of HLA transgenic mice (SFC/10^6) IFN-γ ELISpot, A2” value [5] is reported as 108 ± 60 SFC/10^6.
In the case of LITAAAVTLWENGASSVW [NS4b 201-218], the “T cell activation of HLA transgenic mice … DR3” value [3] is reported as 99 ± 26 SFC/10^6 and the “T cell activation of HLA transgenic mice … DR4” value [4] is reported as 73 ± 8 SFC/10^6.
With LVAAVIGWMLGSNTMQRV [prM 136-153] the “T cell activation of HLA transgenic mice (SFC/10^6) IFN-γ ELISpot, DR2” value (shortened to “T cell activation of HLA transgenic mice … DR2”) [6] was 235 ± 9 SFC/10^6, the “T cell activation of HLA transgenic mice … DR3” value [3] was 78 ± 35 SFC/10^6 and the “T cell activation of HLA transgenic mice … DR4” value [4] was 327 ± 162 SFC/10^6.
For MLGSNTMQRVVFVVLLLL [prM 144-161], the “T cell activation of HLA transgenic mice … DR2” value [6] was 84 ± 32 SFC/10^6, the “T cell activation of HLA transgenic mice … A24” value [2] was 59 ± 18 SFC/10^6 and the “T cell activation of HLA transgenic mice … DR3” value [3] was 134 ± 35 SFC/10^6. For the same substance, the “T cell activation of HLA transgenic mice … DR4” value [4] was 315 ± 157 SFC/10^6.
With NFQLMNDPGAPWKIWMLR [NS2b 84-101] the “T cell activation of HLA transgenic mice … A24” value [2] was 35 ± 1 SFC/10^6.
In the case of PREHNGNEIVDVMCHATL [NS3 249-266], the “T cell activation of HLA transgenic mice … DR2” value [6] is reported as 139 ± 25 SFC/10^6, the “T cell activation of HLA transgenic mice (SFC/10^6) IFN-γ ELISpot, A2” value [5] is reported as 79 ± 27 SFC/10^6 and the “T cell activation of HLA transgenic mice … DR4” value [4] is reported as 46 ± 16 SFC/10^6.
For PTIDVKMMNMEAANLAEV [E 39-56], the “T cell activation of HLA transgenic mice … A24” value [2] was 137 ± 124 SFC/10^6.
For PYSGKREDIWCGSLIGTR [NS5 842-859], the “T cell activation of HLA transgenic mice … A24” value [2] was 180 ± 66 SFC/10^6.
RVVFVVLLLLVAPAYS [prM 152-167] was tested, and the “T cell activation of HLA transgenic mice … DR2” value [6] was 269 ± 30 SFC/10^6, the “T cell activation of HLA transgenic mice (SFC/10^6) IFN-γ ELISpot, A2” value [5] was 318 ± 179 SFC/10^6 and the “T cell activation of HLA transgenic mice … DR3” value [3] was 90 ± 47 SFC/10^6. For the same substance, the “T cell activation of HLA transgenic mice … DR4” value [4] was 117 ± 10 SFC/10^6.
TLMEFEEPHATKQSVIAL [E 238-255] was tested, and the “T cell activation of HLA transgenic mice … A24” value [2] was 122 ± 108 SFC/10^6.
TWAENIQVAINQVRAII [NS5 863-879] was tested, and the “T cell activation of HLA transgenic mice … A24” value [2] was 79 ± 11 SFC/10^6, the “T cell activation of HLA transgenic mice … DR3” value [3] was 121 ± 2 SFC/10^6 and the “T cell activation of HLA transgenic mice … DR4” value [4] was 33 ± 1 SFC/10^6.
TWTLIKNMEKPGLKR [NS4b 241-255] was tested, and the “T cell activation of HLA transgenic mice … A24” value [2] was 53 ± 32 SFC/10^6.
In the case of VFGGITYTDVLRYVILV [NS2a 45-61], the “T cell activation of HLA transgenic mice … DR2” value [6] is reported as 307 ± 119 SFC/10^6, the “T cell activation of HLA transgenic mice … A24” value [2] is reported as 243 ± 196 SFC/10^6 and the “T cell activation of HLA transgenic mice … DR4” value [4] is reported as 74 ± 11 SFC/10^6.
VLGVATFFCWMAEVPGTK [NS4a 86-103] was tested, and the “T cell activation of HLA transgenic mice … A24” value [2] was 65 ± 30 SFC/10^6 and the “T cell activation of HLA transgenic mice … DR4” value [4] was 63 ± 1 SFC/10^6.
With VMTMGVFFLLMQRKGIGK [NS4a 62-79] the “T cell activation of HLA transgenic mice … A24” value [2] was 117 ± 39 SFC/10^6.
For WFMWLGARFLEFEALGFL [NS5 477-494], the “T cell activation of HLA transgenic mice … A24” value [2] was 198 ± 60 SFC/10^6.
With WMEDKTPVEKWSDVPY [NS5 828-843] the “T cell activation of HLA transgenic mice … B7” value [1] was 39 ± 14 SFC/10^6.
With WNV C 9-25 peptide the IFN-γ ELISpot (SFC/10^6) [7] was 43 SFC/10^6.
WNV E 54-71 peptide gave an IFN-γ ELISpot (SFC/10^6) [8] of 205 SFC/10^6.
WNV E 62-77 peptide was tested, and the IFN-γ ELISpot (SFC/10^6) [8] was 47 SFC/10^6 and the IFN-γ ELISpot (SFC/10^6) [9] was 465 SFC/10^6.
WNV E 99-113 peptide was tested, and the IFN-γ ELISpot (SFC/10^6) [10] was 79 SFC/10^6.
WNV E 127-144 peptide was tested, and the IFN-γ ELISpot (SFC/10^6) [10] was 198 SFC/10^6 and the IFN-γ ELISpot (SFC/10^6) [11] was 120 SFC/10^6.
Work on WNV E 135-152 peptide yielded an IFN-γ ELISpot (SFC/10^6) [10] of 86 SFC/10^6.
WNV E 171-188 peptide gave an IFN-γ ELISpot (SFC/10^6) [9] of 279 SFC/10^6 and an IFN-γ ELISpot (SFC/10^6) [7] of 996 SFC/10^6.
With WNV E 210-225 peptide the IFN-γ ELISpot (SFC/10^6) [9] was 323 SFC/10^6 and the IFN-γ ELISpot (SFC/10^6) [7] was 519 SFC/10^6.
Work on WNV E 293-310 peptide yielded an IFN-γ ELISpot (SFC/10^6) [8] of 47 SFC/10^6.
WNV E 384-399 peptide showed an IFN-γ ELISpot (SFC/10^6) [10] of 87 SFC/10^6.
WNV E 398-415 peptide gave an IFN-γ ELISpot (SFC/10^6) [10] of 88 SFC/10^6 and an IFN-γ ELISpot (SFC/10^6) [11] of 168 SFC/10^6.
With WNV E 426-443 peptide the IFN-γ ELISpot (SFC/10^6) [10] was 83 SFC/10^6.
Substance WNV E 434-451 peptide has an IFN-γ ELISpot (SFC/10^6) [10] of 79 SFC/10^6 and an IFN-γ ELISpot (SFC/10^6) [11] of 116 SFC/10^6.
Work on WNV E 442-459 peptide yielded an IFN-γ ELISpot (SFC/10^6) [10] of 101 SFC/10^6, an IFN-γ ELISpot (SFC/10^6) [11] of 117 SFC/10^6 and an IFN-γ ELISpot (SFC/10^6) [9] of 442 SFC/10^6.
With WNV E 465-482 peptide the IFN-γ ELISpot (SFC/10^6) [10] was 330 SFC/10^6, the IFN-γ ELISpot (SFC/10^6) [11] was 490 SFC/10^6 and the IFN-γ ELISpot (SFC/10^6) [9] was 310 SFC/10^6.
